How the values were obtained:
chick embryo = assay: fertile egg or chick embryo assay of Folkman (angiogenesis); format: in vivo; conditions: 50 »g/10 »l in the presence of heparin
From the text: According to this procedure compounds which are considered to be "active" (i.e. antiangiogenic) give an avascular zone of 4 mm or greater in some embryos when tested at 50 »g/10 »l in the presence of 50 »g/10 » of heparin.

ACAT = assay: AcylCoA:Cholesterol Acyltransferase (ACAT) Inhibition Assay; format: cell-based
From the text: ACAT esterifies arterial cholesterol which is a key reaction in the development of atherosclerosis. The procedure of Bell, Can. […] In the ACAT assay it is preferred to use Fu5AH cells, see Lipids 9, 526 (1974). According to this procedure, compounds which inhibit ACAT activity equal to, or greater than, that of chlorpromazine are considered "active".

SEA Japanese Quail = assay: Antiatherosclerosis Screen in SEA Japanese Quail; format: in vivo; conditions: quail fed an atherogenic diet; active = decrease of serum or arterial cholesterol > 30 %
[1] = test system: aspirin/cold induced ulcer; assay: aspirin/cold induced ulcer assay of Rainsford; format: in vivo; conditions: active = 50% or more reduction of ulcer index
From the text: According to this procedure compounds which give a 50% or more reduction of ulcer index are considered to be "active".

mucous secretion = assay: inhibition of mucous secretion assay of Johnson; conditions: active = inhibits or blocks enhancement of induced mucous secretions
From the text: The inhibition of mucous secretion assay of Johnson Int. […] According to this procedure compounds which inhibit or block enhancement of induced mucous secretions when tested are considered to be "active".

Row | Compound | % of Embryos with 4 mm or Greater Avascular Zone (chick embryo) [%] | % Inhibition of ACAT (5 »g/ml) (ACAT; 5 »g/ml) [%] | inhibiting ACAT (ACAT; active = inhibits ACAT activity equal to, or greater than, that of chlorpromazine) | reduction of serum and arterial cholesterol (SEA Japanese Quail) | anti-ulcer activity [1] | inhibition of mucous secretion (mucous secretion)
1 | 11α,17α-Dihydroxy-21-[4-(2-pyridinyl)-1-piperazinyl]pregn-4-ene-3,20-dione 11-(3,3-dimethyl-1-butyrate dihydrochloride [Example 28] | 73 |  |  |  |  | 
2 | C[C@]12CCC(=O)C=C1CC[C@@H]1C2=CC[C@@]2(C)[C@H]1CC[C@]2(O)C(=O)CN1CCN(c2ccccn2)CC1.Cl [Example 3, 17α-Hydroxy-21-[4-(2-pyridinyl)-1-piperazinyl]pregna-4,9(11)-diene-3,20-dione hydrogen chloride salt] |  | 63.9 | active in inhibiting ACAT | demonstrates reduction of serum and arterial cholesterol |  | 
3 | CN(C)c1cc(N2CCN(CC(=O)[C@@]3(O)CC[C@H]4[C@@H]5CCC6=CC(=O)CC[C@]6(C)C5=CC[C@@]43C)CC2)nc(N(C)C)n1.Cl.Cl.O [Example 16, 17α-Hydroxy-21-[4-[2,6-bis(dimethylamino)-4-pyrimidinyl]-1-piperazinyl]pregna-4,9(11)-diene-3,20-dione dihydrochloride hydrate] | 91 |  |  |  | demonstrates anti-ulcer activity | demonstrate such activity

— EP0263213B1, “C20 Through C26 amino steroids” (THE UPJOHN COMPANY, priority 1986, dated 1988)
